Reference: patent publication US10947558B2, “Compositions and methods for inducing resistance to soybean cyst nematode via RNAi” (priority 2015, dated 2021)

Test system: C. elegans (N2 wild type)
Test: RNA interference in C. elegans by soaking L2 worms in HgRPS23 dsRNA (vitality/lethality)
Assay type: in vivo
Settings: 10 μM, positive control, after one day of soaking
Description: The effectiveness of HgRPS23 siRNA in silencing the worm's ribosomal protein gene was tested in C. elegans, following the previously published protocols (Alkharouf et al., 2007, Peng et al., 2016) with modifications. A T7 promoter sequence (5′-TAATACGACTCACTATAG-3′; SEQ ID NO: 3) was added to the 5′ ends of both the forward and reverse primer to amplify the 225 bp of HgRPS23 from pRD64 by PCR. The amplified PCR product was used to produce the double stranded (ds) in vitro transcript by the MEGAscript®T7 kit (Ambion/Invitrogen, Calsbad, Calif., USA).
The wt N2 strain of C. elegans was obtained from the CGC (Caenorhabditis Genetics Center) and maintained on NGM (Nematode Growth Medium) plates (60 mm petri dishes) at room temperature. The worms were grown and synchronized using protocols from the WormBase (www.wormbase.org). The L2 worms were soaked in 100 μl M9 buffer (22 mM KH2PO4, 4.7 mM NH4Cl, 43.6 mM Na2HPO4 and 2.1 mM NaCl) containing 50 mM octopamine (Sigma, St. Louis, Mo., USA) to increase pharyngeal pumping and 2 mg/ml HgRPS23 dsRNA. The negative control L2 worms were treated by soaking in M9 buffer containing 50 mM octopamine only. The positive control L2 worms were soaked in M9 buffer containing 50 mM octopamine and 10 μM cycloheximide (Sigma, St. Louis, Mo., USA) as a translation inhibitor. C. elegans worms were treated in the wells of a 96-well plate on a gentle shaker. […]

C[C@@H]1C[C@@H]([C@H](O)CC2CC(=O)NC(=O)C2)C(=O)[C@@H](C)C1 [cycloheximide]
vitality rate of N2 worms: approximately 20%
